# US20220257540A1, “COMPOSITIONS AND METHODS FOR TREATMENT OF HEPATITIS B VIRUS INFECTION” (ANHUI RONGHANG BIOTECH DEVELOPMENT CO., LTD., priority 2019, published 2022)
# Read-outs that look alike come from different tables or passages of the source.
# Assays:
# P-gp = P-gp (Homo sapiens, UniProt P08183); settings: cited from earlier work
# HBV GT C = experiment: In vitro anti-HBV efficacy in HBV-infected PXB-cells; type: cell-based; settings: for Extracellular HBV DNA / Extracellular HBsAg / Intracellular HBV DNA / Intracellular cccDNA / anti-HBV efficacy: Day 27; for Extracellular HBeAg: Day 27, 10 fold diluted sample; for anti-HBV efficacy: HBV-infected PXB-cells
# Procedure: Materials & Methods: PXB-cells was infected with HBV GT C. […] The anti-HBV therapeutic efficacy was measured by the analysis of extracellular HBV DNA, HBsAg, HBeAg, h-Alb, and intracellular HBV DNA/cceDNA levels. Entecavir was used as the positive control. The hepatocytes isolated from 3 mice were combined to seed culture plate. The cell density of mixed cell was 7.37×10^6 cells/mL. PXB-cells® are the fresh hepatocytes which are isolated from PXB-mice. Cells viability after isolation: >80%. Donor Hepatocytes were purchased from Corning, Incorporated (Tewksbury, Mass., USA), Lot: BD195 ([…]). […] Entecavir was purchased from Santa-cruz, Lot: 10914, Concentration: 1 mM. Plates was observed under microscopy and photographed.
# chronic Hepatitis B = settings: 1 mg a day orally for 5 days-a-week over 6 months, cited from earlier work
# [1] = tested on: HBV-related postnecrotic cirrhosis; settings: double-blind controlled trial, 100 patients; cited from earlier work
# [2] = cited from earlier work; for Peak blood level (Cmax) / Exposure (area under the curve) / terminal half-life: fasted healthy volunteers; for mean Cmax: healthy adults, capsules orally
# [3] = ingested more than 0.8 mg/kg; cited from earlier work
# liver fibrosis = settings: rats with carbon tetrachloride induced cirrhosis; cited from earlier work
# P-gp, sequence (P08183 whole entry): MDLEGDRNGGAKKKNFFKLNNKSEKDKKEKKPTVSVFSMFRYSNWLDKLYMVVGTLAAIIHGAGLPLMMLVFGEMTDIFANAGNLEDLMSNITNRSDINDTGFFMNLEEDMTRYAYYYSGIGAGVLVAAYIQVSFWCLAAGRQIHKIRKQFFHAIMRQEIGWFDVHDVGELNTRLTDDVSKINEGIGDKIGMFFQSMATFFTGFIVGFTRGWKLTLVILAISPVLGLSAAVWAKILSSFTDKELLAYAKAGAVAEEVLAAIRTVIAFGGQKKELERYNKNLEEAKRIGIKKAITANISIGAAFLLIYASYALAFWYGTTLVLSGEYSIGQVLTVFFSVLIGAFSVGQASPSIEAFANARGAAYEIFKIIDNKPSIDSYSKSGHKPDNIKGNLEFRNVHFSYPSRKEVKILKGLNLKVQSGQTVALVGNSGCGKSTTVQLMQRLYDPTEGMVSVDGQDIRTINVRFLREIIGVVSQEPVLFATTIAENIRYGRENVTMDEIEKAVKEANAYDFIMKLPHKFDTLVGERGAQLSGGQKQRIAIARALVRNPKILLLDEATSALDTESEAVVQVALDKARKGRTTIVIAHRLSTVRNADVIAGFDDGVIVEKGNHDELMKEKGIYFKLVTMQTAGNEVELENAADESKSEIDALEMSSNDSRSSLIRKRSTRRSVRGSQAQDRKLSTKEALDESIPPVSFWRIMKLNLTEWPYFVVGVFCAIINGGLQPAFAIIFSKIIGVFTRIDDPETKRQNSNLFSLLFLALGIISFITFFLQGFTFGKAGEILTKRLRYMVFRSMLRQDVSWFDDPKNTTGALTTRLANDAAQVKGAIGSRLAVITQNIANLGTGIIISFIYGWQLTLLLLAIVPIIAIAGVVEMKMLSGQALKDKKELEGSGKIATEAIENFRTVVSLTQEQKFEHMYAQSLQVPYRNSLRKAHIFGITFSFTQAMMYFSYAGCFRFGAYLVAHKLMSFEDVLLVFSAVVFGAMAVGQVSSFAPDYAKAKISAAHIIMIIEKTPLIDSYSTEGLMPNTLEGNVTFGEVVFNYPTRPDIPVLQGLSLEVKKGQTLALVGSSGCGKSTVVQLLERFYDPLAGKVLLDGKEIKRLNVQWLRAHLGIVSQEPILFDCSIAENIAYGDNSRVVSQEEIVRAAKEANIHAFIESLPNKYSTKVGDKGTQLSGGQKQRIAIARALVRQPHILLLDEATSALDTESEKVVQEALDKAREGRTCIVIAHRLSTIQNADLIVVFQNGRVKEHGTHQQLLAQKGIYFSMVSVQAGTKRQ
smiles,measurement,setting,value
"COc1cc2c(cc1OC)CN(CCc1ccc(NC(=O)c3cc(OC)c(OC)cc3NC(=O)c3cnc4ccccc4c3)cc1)CC2 [XR9576, N-[2-[[4-[2-(6,7-Dimethoxy-3,4-dihydro-1H-isoquinolin-2-yl)ethyl]phenyl]c-arbamoyl]-4,5-dimethoxyphenyl]quinoline-3-carboxamide]",potency relative to the first and second-generation P-gp inhibitors,P-gp,about 10 fold
C=C1[C@H](CO)[C@@H](O)C[C@@H]1n1cnc2c(=O)[nH]c(N)nc21 [Entecavir],Extracellular HBV DNA,HBV GT C; Entecavir 9.8 pM,6.36 Log copies/mL
same,Extracellular HBsAg,HBV GT C; Entecavir 9.8 pM,16.0 IU/mL
same,Intracellular HBV DNA,HBV GT C; Entecavir 9.8 pM,91546 copies/100 ng DNA
same,Intracellular cccDNA,HBV GT C; Entecavir 9.8 pM,125 copies/100 ng DNA
same,Extracellular HBeAg,HBV GT C; Entecavir 9.8 pM,11.6 C.O.I
same,Extracellular HBV DNA,HBV GT C; Entecavir 19.5 pM,5.76 Log copies/mL
same,Extracellular HBsAg,HBV GT C; Entecavir 19.5 pM,14.2 IU/mL
same,Intracellular HBV DNA,HBV GT C; Entecavir 19.5 pM,53766 copies/100 ng DNA
same,Intracellular cccDNA,HBV GT C; Entecavir 19.5 pM,82 copies/100 ng DNA
same,Extracellular HBeAg,HBV GT C; Entecavir 19.5 pM,10.0 C.O.I
same,Extracellular HBV DNA,HBV GT C; Entecavir 39.1 pM,5.06 Log copies/mL
same,Extracellular HBsAg,HBV GT C; Entecavir 39.1 pM,12.2 IU/mL
same,Intracellular HBV DNA,HBV GT C; Entecavir 39.1 pM,30701 copies/100 ng DNA
same,Intracellular cccDNA,HBV GT C; Entecavir 39.1 pM,69 copies/100 ng DNA
same,Extracellular HBeAg,HBV GT C; Entecavir 39.1 pM,8.1 C.O.I
same,Extracellular HBV DNA,HBV GT C; Entecavir 78.1 pM,4.66 Log copies/mL
same,Extracellular HBsAg,HBV GT C; Entecavir 78.1 pM,15.7 IU/mL
same,Intracellular HBV DNA,HBV GT C; Entecavir 78.1 pM,14257 copies/100 ng DNA
same,Intracellular cccDNA,HBV GT C; Entecavir 78.1 pM,82 copies/100 ng DNA
same,Extracellular HBeAg,HBV GT C; Entecavir 78.1 pM,9.8 C.O.I
same,Extracellular HBV DNA,HBV GT C; Entecavir 156.3 pM,4.56 Log copies/mL
same,Extracellular HBsAg,HBV GT C; Entecavir 156.3 pM,15.1 IU/mL
same,Intracellular HBV DNA,HBV GT C; Entecavir 156.3 pM,5620 copies/100 ng DNA
same,Intracellular cccDNA,HBV GT C; Entecavir 156.3 pM,61 copies/100 ng DNA
same,Extracellular HBeAg,HBV GT C; Entecavir 156.3 pM,9.6 C.O.I
same,Extracellular HBV DNA,HBV GT C; Entecavir 312.5 pM,4.46 Log copies/mL
same,Extracellular HBsAg,HBV GT C; Entecavir 312.5 pM,14.3 IU/mL
same,Intracellular HBV DNA,HBV GT C; Entecavir 312.5 pM,3752 copies/100 ng DNA
same,Intracellular cccDNA,HBV GT C; Entecavir 312.5 pM,34 copies/100 ng DNA
same,Extracellular HBeAg,HBV GT C; Entecavir 312.5 pM,9.4 C.O.I
same,Extracellular HBV DNA,HBV GT C; Entecavir 625 pM,4.46 Log copies/mL
same,Extracellular HBsAg,HBV GT C; Entecavir 625 pM,13.0 IU/mL
same,Intracellular HBV DNA,HBV GT C; Entecavir 625 pM,2954 copies/100 ng DNA
same,Intracellular cccDNA,HBV GT C; Entecavir 625 pM,+
same,Extracellular HBeAg,HBV GT C; Entecavir 625 pM,8.9 C.O.I
same,Extracellular HBV DNA,HBV GT C; Entecavir 1.25 nM,4.46 Log copies/mL
same,Extracellular HBsAg,HBV GT C; Entecavir 1.25 nM,11.2 IU/mL
same,Intracellular HBV DNA,HBV GT C; Entecavir 1.25 nM,3031 copies/100 ng DNA
same,Intracellular cccDNA,HBV GT C; Entecavir 1.25 nM,+
same,Extracellular HBeAg,HBV GT C; Entecavir 1.25 nM,6.9 C.O.I
same,Extracellular HBV DNA,HBV GT C; Entecavir 5 nM,4.26 Log copies/mL
same,Extracellular HBsAg,HBV GT C; Entecavir 5 nM,10.9 IU/mL
same,Intracellular HBV DNA,HBV GT C; Entecavir 5 nM,2974 copies/100 ng DNA
same,Intracellular cccDNA,HBV GT C; Entecavir 5 nM,33 copies/100 ng DNA
same,Extracellular HBeAg,HBV GT C; Entecavir 5 nM,7.1 C.O.I
same,Extracellular HBV DNA,HBV GT C; Entecavir 10 nM,4.46 Log copies/mL
same,Extracellular HBsAg,HBV GT C; Entecavir 10 nM,11.6 IU/mL
same,Intracellular HBV DNA,HBV GT C; Entecavir 10 nM,2936 copies/100 ng DNA
same,Intracellular cccDNA,HBV GT C; Entecavir 10 nM,+
same,Extracellular HBeAg,HBV GT C; Entecavir 10 nM,7.4 C.O.I
same,anti-HBV efficacy,HBV GT C,anti-HBV efficacy in a dose dependent manner
"COc1cc2c(c(OC)c1OC)-c1ccc(OC)c(=O)cc1[C@@H](NC(C)=O)CC2 [Colchicine, N [5,6,7,9-tetrahydro-1,2,3,10-tetratmethoxy 9-oxobenzo[a]heptalen-7-yl], (S)-acetamide]",patients failed (response rate),chronic Hepatitis B; pilot study,3 of 7
same,"sustained response, treated patients","chronic Hepatitis B; two-center trial, 4 of 6 treated patients",66.6%
same,effect in the treatment of HBV-related postnecrotic cirrhosis,[1],no effect
same,Peak blood level (Cmax),[2]; high-dose (1.2 mg followed by 0.6 mg every hour for 6 h; 4.8 mg total),6.84 ng/mL
same,Exposure (area under the curve),[2]; high-dose (4.8 mg total),118.2 ng/h/mL
same,terminal half-life,[2]; high-dose (4.8 mg total),31.4 h
same,Peak blood level (Cmax),[2]; low-dose (1.2 mg followed by 0.6 mg in 1 h; 1.8 mg total),6.19 ng/mL
same,Exposure (area under the curve),[2]; low-dose (1.8 mg total),52.1 ng/h/mL
same,terminal half-life,[2]; low-dose (1.8 mg total),23.6 h
same,Exposure (area under the curve),[2]; single dose (0.6 mg),14.1 ng/h/mL
same,terminal half-life,[2]; single dose (0.6 mg),6.36 h
same,mean Cmax,[2]; 0.6 mg single dose,3 ng/mL
same,mean Cmax,[2]; 1.0 mg single dose,6.50 ± 1.03 ng/mL
same,Absolute bioavailability,"[2]; human, in vivo",approximately 45%
same,mortality,[3],100%
same,Extracellular HBV DNA,HBV GT C; Colchicine 1 nM,7.06 Log copies/mL
same,Extracellular HBsAg,HBV GT C; Colchicine 1 nM,23.1 IU/mL
same,Intracellular HBV DNA,HBV GT C; Colchicine 1 nM,250511 copies/100 ng DNA
same,Intracellular cccDNA,HBV GT C; Colchicine 1 nM,217 copies/100 ng DNA
same,Extracellular HBeAg,HBV GT C; Colchicine 1 nM,14.7 C.O.I
same,Extracellular HBV DNA,HBV GT C; Colchicine 2 nM,7.06 Log copies/mL
same,Extracellular HBsAg,HBV GT C; Colchicine 2 nM,23.5 IU/mL
same,Intracellular HBV DNA,HBV GT C; Colchicine 2 nM,235131 copies/100 ng DNA
same,Intracellular cccDNA,HBV GT C; Colchicine 2 nM,207 copies/100 ng DNA
same,Extracellular HBeAg,HBV GT C; Colchicine 2 nM,16.2 C.O.I
same,Extracellular HBV DNA,HBV GT C; Colchicine 3.9 nM,7.16 Log copies/mL
same,Extracellular HBsAg,HBV GT C; Colchicine 3.9 nM,26.7 IU/mL
same,Intracellular HBV DNA,HBV GT C; Colchicine 3.9 nM,282895 copies/100 ng DNA
same,Intracellular cccDNA,HBV GT C; Colchicine 3.9 nM,247 copies/100 ng DNA
same,Extracellular HBeAg,HBV GT C; Colchicine 3.9 nM,19.2 C.O.I
same,Extracellular HBV DNA,HBV GT C; Colchicine 7.8 nM,7.06 Log copies/mL
same,Extracellular HBsAg,HBV GT C; Colchicine 7.8 nM,25.5 IU/mL
same,Intracellular HBV DNA,HBV GT C; Colchicine 7.8 nM,270324 copies/100 ng DNA
same,Intracellular cccDNA,HBV GT C; Colchicine 7.8 nM,227 copies/100 ng DNA
same,Extracellular HBeAg,HBV GT C; Colchicine 7.8 nM,17.4 C.O.I
same,Extracellular HBV DNA,HBV GT C; Colchicine 15.6 nM,6.86 Log copies/mL
same,Extracellular HBsAg,HBV GT C; Colchicine 15.6 nM,25.2 IU/mL
same,Intracellular HBV DNA,HBV GT C; Colchicine 15.6 nM,256994 copies/100 ng DNA
same,Intracellular cccDNA,HBV GT C; Colchicine 15.6 nM,261 copies/100 ng DNA
same,Extracellular HBeAg,HBV GT C; Colchicine 15.6 nM,16.3 C.O.I
same,Extracellular HBV DNA,HBV GT C; Colchicine 31.3 nM,6.06 Log copies/mL
same,Extracellular HBsAg,HBV GT C; Colchicine 31.3 nM,2.17 IU/mL
same,Intracellular HBV DNA,HBV GT C; Colchicine 31.3 nM,52249 copies/100 ng DNA
same,Intracellular cccDNA,HBV GT C; Colchicine 31.3 nM,80 copies/100 ng DNA
same,Extracellular HBeAg,HBV GT C; Colchicine 31.3 nM,3.6 C.O.I
same,Extracellular HBV DNA,HBV GT C; Colchicine 62.5 nM,4.86 Log copies/mL
same,Extracellular HBsAg,HBV GT C; Colchicine 62.5 nM,0.12 IU/mL
same,Intracellular HBV DNA,HBV GT C; Colchicine 62.5 nM,9638 copies/100 ng DNA
same,Intracellular cccDNA,HBV GT C; Colchicine 62.5 nM,+
same,Extracellular HBeAg,HBV GT C; Colchicine 62.5 nM,0.7 C.O.I
same,Extracellular HBV DNA,HBV GT C; Colchicine 125 nM,4.86 Log copies/mL
same,Extracellular HBsAg,HBV GT C; Colchicine 125 nM,<0.05 IU/mL
same,Intracellular HBV DNA,HBV GT C; Colchicine 125 nM,8341 copies/100 ng DNA
same,Intracellular cccDNA,HBV GT C; Colchicine 125 nM,+
same,Extracellular HBeAg,HBV GT C; Colchicine 125 nM,0.3 C.O.I
same,Extracellular HBV DNA,HBV GT C; Colchicine 250 nM,4.86 Log copies/mL
same,Extracellular HBsAg,HBV GT C; Colchicine 250 nM,<0.05 IU/mL
same,Intracellular HBV DNA,HBV GT C; Colchicine 250 nM,9187 copies/100 ng DNA
same,Intracellular cccDNA,HBV GT C; Colchicine 250 nM,+
same,Extracellular HBeAg,HBV GT C; Colchicine 250 nM,0.2 C.O.I
same,Extracellular HBV DNA,HBV GT C; Colchicine 500 nM,4.86 Log copies/mL
same,Extracellular HBsAg,HBV GT C; Colchicine 500 nM,<0.05 IU/mL
same,Intracellular HBV DNA,HBV GT C; Colchicine 500 nM,9019 copies/100 ng DNA
same,Intracellular cccDNA,HBV GT C; Colchicine 500 nM,+
same,Extracellular HBeAg,HBV GT C; Colchicine 500 nM,0.2 C.O.I
same,Extracellular HBV DNA,HBV GT C; Colchicine 1000 nM,4.86 Log copies/mL
same,Extracellular HBsAg,HBV GT C; Colchicine 1000 nM,<0.05 IU/mL
same,Intracellular HBV DNA,HBV GT C; Colchicine 1000 nM,8717 copies/100 ng DNA
same,Intracellular cccDNA,HBV GT C; Colchicine 1000 nM,29 copies/100 ng DNA
same,Extracellular HBeAg,HBV GT C; Colchicine 1000 nM,0.2 C.O.I
same,anti-HBV efficacy,HBV GT C,anti-HBV efficacy in a dose dependent manner
same,liver fibrosis,liver fibrosis,decrease liver fibrosis
"CCOC/C=C/c1ccc(-c2nc(-c3ccc(NC(C)C)cc3)c(-c3ccc(NC(C)C)cc3)[nH]2)cc1 [OC144093, 4-[2-[4-[(E)-3-ethoxyprop-1-enyl]phenyl]-4-[4-(propan-2-ylamino)phenyl]-1H-imidazol-5-yl]-N-propan-2-ylaniline]",potency relative to the first and second-generation P-gp inhibitors,P-gp,about 10 fold
